Article PMC12514245, “Impaired migration and lung invasion of human melanoma by a novel small molecule targeting the transmembrane domain of death receptor p75^NTR” (EMBO Molecular Medicine, 2025)
Several values for one entry are separate records, joined by “and”; a condition that tells them apart may be missing. Equal entries are not always repeated.

Columns and labels:
A875 NT cells = experiment: Boyden chamber chemotaxis/invasion assay, A875 NT; format: cell-based, human; details: for Fold change - invading cells, Mean / Fold change - invading cells, individual replicates: 1μM; for Fold change (invading cells), Mean: N=3
Procedure: For Boyden chamber assay, Corning® BioCoat™ Matrigel® Invasion Chambers 8.0 µm PET Membrane were used (cat. no. 354480). A875 NT or WM115 cells were serum-starved for 16 h and then seeded at 60,000 cells per well in serum-free media under different conditions, including DMSO (vehicle) or small molecules Div17E5 or Np75-4A22 at different concentrations to the top chamber of the Matrigel-coated trans-well chamber. The pan-caspase inhibitor Q_VD_poH (at 5 µM) was also introduced in the top chamber in some experiments. Two different chemoattractants, NGF (at 50 ng/ml or 100 ng/ml as indicated) or 10% FBS were added to the bottom chamber. Assays were carried out for 8 h after which filters were fixed in 4% PFA and stained with DAPI. Cells that had remained on the top of the filter were gently scrapped away with a cotton tip. The filter lower side was imaged on an inverted fluorescence microscope and counted using ImageJ software (NIH).

p75^NTR TMD P253G = target: T1, p75^NTR TMD P253G (Homo sapiens, UniProt P08138, P253G); experiment: AraTM assay, P253G mutant p75NTR TMD; format: cell-based; details: for GFP/OD630, p75NTR P253G, Mean: N=3;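 on GFP/OD630, p75NTR P253G, Mean: 100% is GFP/OD630 of wild-type p75NTR TMD without drug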;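 on GFP/OD630, p75NTR P253G, n1-n3: 100% is GFP/OD630 of wild-type p75NTR TMD without drug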
T1 construct: Comparison of wild-type (WT) p75^NTR TMD and I252A, P253G and V254A mutants in the AraTM assay; expressed in transfected cells; host or cells: E. coli AS19 (LPS-negative)

A875 melanoma cells (NT) = experiment: Cleaved PARP western blot (apoptosis), A875 NT; format: cell-based, human
Procedure: One of the main biological readouts of p75^NTR activity in response to neurotrophins is the induction of caspase-mediated apoptotic cell death (Underwood and Coulson, [2008]; Friedman, [2010]; Ibáñez and Simi, [2012]).
COS7, A875 and WM115 cell lines were cultured under standard conditions in DMEM supplemented with 10% fetal calf serum, 100 units/ml penicillin, […] streptomycin, and 2.5 mM glutamine. All cells were authenticated and tested for mycoplasma contamination. A875-NT (control) and A875 shp75 (knockdown) cell lines were described previously (Goh et al, [2018]).

p75^NTR TMD = target: T2, p75^NTR TMD (Homo sapiens, UniProt P08138); experiment: AraTM assay, wild-type p75NTR TMD (GFP/OD630); format: cell-based; details: for GFP/OD630, p75, mean: N=3
T2 sequence (P08138 250-275 limits assumed): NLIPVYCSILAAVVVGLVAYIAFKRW

[1] = 5μM Q_VD_pOH + 10uM Div17E5, With NGF
[2] = 5μM Q_VD_pOH + 10uM Div17E5, without NGF

T1 sequence (P08138 251-272 P253G limits assumed): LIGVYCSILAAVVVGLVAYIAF

Oc1ccc(-c2cncc(Nc3ccc(Br)c(Cl)c3)n2)cc1 [Div17E5]
NGF-induced chemotaxis (A875 NT cells): strongly inhibited | background cell migration in the absence of NGF (A875 NT cells): did not significantly affect background cell migration | Fold change - invading cells, Mean (A875 NT cells; NGF): 1.91 | Fold change - invading cells, individual replicates (A875 NT cells; NGF): 1.80 and 1.91 and 2.02 | Fold change - invading cells, Mean (A875 NT cells; no NGF): 0.91 | Fold change - invading cells, individual replicates (A875 NT cells; no NGF): 0.87 and 0.90 and 0.95 | NGF activity in Boyden chamber assay of cell chemotaxis (A875 NT cells; 1 μM, NGF 50 ng/ml): inactive | Fold change (invading cells), n1-n3 (A875 NT cells; [1]): 0.46 Fold and 0.84 Fold and 0.68 Fold | Fold change (invading cells), Mean (A875 NT cells; [1]): 0.66 Fold | Fold change (invading cells), n1-n3 (A875 NT cells; [2]): 0.94 Fold and 0.80 Fold | Fold change (invading cells), Mean (A875 NT cells; [2]): 0.89 Fold | Fold change (invading cells), n1-n3 (A875 NT cells; 10μM Div17E5, With NGF): 0.42 Fold and 0.37 Fold and 0.47 Fold | Fold change (invading cells), Mean (A875 NT cells; 10μM Div17E5, With NGF): 0.42 Fold | Fold change (invading cells), n1-n3 (A875 NT cells; 10μM Div17E5, without NGF): 0.87 Fold and 0.75 Fold and 0.76 Fold | Fold change (invading cells), Mean (A875 NT cells; 10μM Div17E5, without NGF): 0.79 Fold | effect of Pro253 mutation on compound activity in AraTM assay (p75^NTR TMD P253G): had no effect | GFP/OD630, p75NTR P253G, n1-n3 (p75^NTR TMD P253G; Div17E5 7.5 uM): 62% and 68% and 61% | GFP/OD630, p75NTR P253G, Mean (p75^NTR TMD P253G; Div17E5 7.5 uM): 64% | GFP/OD630, p75NTR P253G, n1-n3 (p75^NTR TMD P253G; Div17E5 15 uM): 61% and 77% and 66% | GFP/OD630, p75NTR P253G, Mean (p75^NTR TMD P253G; Div17E5 15 uM): 68% | GFP/OD630, p75NTR P253G, n1-n3 (p75^NTR TMD P253G; Div17E5 20 uM): 59% and 49% and 56% | GFP/OD630, p75NTR P253G, Mean (p75^NTR TMD P253G; Div17E5 20 uM): 55% | GFP/OD630, p75NTR P253G, n1-n3 (p75^NTR TMD P253G; Div17E5 50 uM): 57% and 56% and 59% | GFP/OD630, p75NTR P253G, Mean (p75^NTR TMD P253G; Div17E5 50 uM): 57% | apoptosis (cleavage of PARP) (A875 melanoma cells (NT)): induced apoptosis | Cleaved PARP normalized to DMSO, individual replicates (A875 melanoma cells (NT); 0.5uM): 2.699 and 3.180 and 5.109 | Cleaved PARP/actin, individual replicates (A875 melanoma cells (NT); 0.5uM): 0.023 and 0.026 and 0.037 | Cleaved PARP normalized to DMSO, Average (A875 melanoma cells (NT); 0.5μM): 3.662 | Cleaved PARP normalized to DMSO, individual replicates (A875 melanoma cells (NT); 1uM): 10.573 and 9.243 and 5.315 | Cleaved PARP/actin, individual replicates (A875 melanoma cells (NT); 1uM): 0.078 and 0.043 and 0.077 | Cleaved PARP normalized to DMSO, Average (A875 melanoma cells (NT); 1μM): 8.377 | Cleaved PARP normalized to DMSO, individual replicates (A875 melanoma cells (NT); 2uM): 25.774 and 23.617 and 17.703 | Cleaved PARP/actin, individual replicates (A875 melanoma cells (NT); 2uM): 0.187 and 0.200 and 0.142 | Cleaved PARP normalized to DMSO, Average (A875 melanoma cells (NT); 2μM): 22.365 | Cleaved PARP normalized to DMSO, individual replicates (A875 melanoma cells (NT); 5uM): 31.874 and 36.234 and 27.415 | Cleaved PARP/actin, individual replicates (A875 melanoma cells (NT); 5uM): 0.231 and 0.306 and 0.220 | Cleaved PARP normalized to DMSO, Average (A875 melanoma cells (NT); 5μM): 31.841 | GFP/OD630, p75, single replicates (p75^NTR TMD; Div17E5 1 μM): 95 and 91 and 115 | GFP/OD630, p75, mean (p75^NTR TMD; Div17E5 1 μM): 100 | GFP/OD630, p75, single replicates (p75^NTR TMD; Div17E5 2.5 μM): 82 and 86 and 101 | GFP/OD630, p75, mean (p75^NTR TMD; Div17E5 2.5 μM): 90 | GFP/OD630, p75, single replicates (p75^NTR TMD; Div17E5 5 μM): 66 and 81 and 88 | GFP/OD630, p75, mean (p75^NTR TMD; Div17E5 5 μM): 78
